From patent publication US20170058314A1, “NOVEL METHODOLOGY FOR IDENTIFYING ANTI-PERSISTER ACTIVITY AND ANTIMICROBIAL SUSCEPTIBILITY FOR BORRELIA BURGDORFERI AND OTHER BACTERIA” (priority 2014, published 2017)

Experiments:
[1] = tested on: B. burgdorferi (growing, strain B31); assay: MIC determination, standard microdilution method; type: cell-based, Borrelia burgdorferi; conditions: Borreliella burgdorferi; growing B. burgdorferi; read-out: MIC
[2] = tested on: round body form of B. burgdorferi; assay: SYBR Green I/PI assay on amoxicillin-induced round body form
[3] = tested on: stationary phase B. burgdorferi persisters (strain B31); assay: epifluorescence microscope counting after SYBR Green I/PI staining, FDA drug screen; conditions: Borreliella burgdorferi, 168 h, read-out: Residual viable cells (epifluorescence microscope counting)
[4] = tested on: stationary phase B. burgdorferi persisters (strain B31); assay: NCI compound library rescreen, epifluorescence microscope counting; conditions: Borreliella burgdorferi, 168 h
[5] = tested on: B. burgdorferi log and stationary phase cultures; assay: epi-fluorescence microscope counting after antibiotic exposure (persister frequency, planktonic forms); type: cell-based, Borrelia burgdorferi
[6] = tested on: stationary phase B. burgdorferi persisters (strain B31); assay: SYBR Green I/PI viability assay (plate reader), FDA-approved drug library screen
[7] = tested on: stationary phase B. burgdorferi; assay: Subculture test of drug-treated stationary phase B. burgdorferi; type: cell-based, Borrelia burgdorferi; conditions: 10 μg/mL
Protocol: Seven-day-old B. burgdorferi culture (1×10^7 spirochetes/mL) (500 μL) was treated with drugs or drug combinations in Eppendorf tubes. After incubation at 33° C. for 7 days without shaking, the cells were collected by centrifugation and rinsed with 1 mL fresh BSK-H medium followed by resuspension in 500 μL fresh BSK-H medium without antibiotics. Then 50 μL of cell suspension was transferred to 1 mL fresh BSK-H medium for subculture at 33° C. for 2 weeks. Cell proliferation was assessed using SYBR Green I/PI assay and bacterial counting chamber (Hausser Scientific Partnership) by microscopy as described above.

[8] = tested on: stationary phase B. burgdorferi persisters (strain B31); assay: NCI compound library screen, SYBR Green I/PI assay (plate reader)
[9] = tested on: round body form of B. burgdorferi; assay: Subculture test of drug-treated round body form
Protocol: For induction of round body form of B. burgdorferi, B. burgdorferi spirochetes (1×10^5 spirochetes/mL) were cultured in BKS-H medium for 6 days without shaking. After the 6-day incubation, amoxicillin at a final concentration of 50 μg/mL was added to the culture for round body form induction. After 72 h induction at 33° C., the round body forms of B. burgdorferi were examined by the microscopy. The round body cells (100 μL) were transferred to 96-well tissue culture microplates for evaluation of the effects of antibiotic treatment.

[10] = 50 μM, 7 days, stationary phase
[11] = 7 days treatment, then subculture
[12] = 10 μg/mL, 7 days treatment, then subculture

## C[C@H]1c2cccc(O)c2C(=O)C2=C(O)[C@]3(O)C(=O)C(C(N)=O)=C(O)[C@@H](N(C)C)[C@@H]3[C@@H](O)[C@@H]21 [Doxycycline]
[1]
  MIC: ≤ 0.25 µg/mL
[2]; 10 μg/mL drugs or combinations, 7 days
  Live cell %, round body form: 49%
[2]; Borreliella burgdorferi, 168 h, read-out: Residual viable cells (SYBR Green I/PI assay)
  viability at 50 µM: 42%
[2]; round body form, 50 μM, 7 days
  Ratios of green/red fluorescence, Primary screening: 6.34
  Ratios of green/red fluorescence, Rescreening (first column): 6.39
  Ratios of green/red fluorescence, Rescreening (second column): 6.67
[3]
  viability at 50 µM: 75%
[4]; read-out: Activity against persisters (residual viable cell percentage)
  viability at 50 µM: 77%
[4]; read-out: Residual viable cells (%) 20 μM (epifluorescence microscope counting)
  viability at 20 µM: 77%
[4]; read-out: Residual viable cells (%) 50 μM (epifluorescence microscope counting)
  viability at 50 µM: 77%
[4]; read-out: Residual viable cells (epifluorescence microscope counting)
  viability at 50 µM: 77%
[5]; 3-day log phase culture
  persister frequency (percentage of live cells after antibiotic treatment, in brackets): (6.4%)
[5]; 7-day stationary phase culture
  persister frequency (in brackets): (24%)
[5]; 10-day stationary phase culture
  persister frequency (in brackets): (~25%)
[5]; 10-day-old stationary phase culture, 10 μg/mL, 7 days, FIG. 17A
  planktonic form cells remaining green (live): about 71%
[6]; [10]
  Ratio of Green/Red fluorescence, Primary screening: 7.62
  Ratio of Green/Red fluorescence, Rescreening (first column): 7.35
  Ratio of Green/Red fluorescence, Rescreening (second column): 7.58
[6]; Borreliella burgdorferi, 168 h, read-out: Residual viable cells (regression equation, SYBR Green I/PI assay)
  viability at 50 µM: 67%
[7]; 7 days
  G/R ratio immediately after treatment: 6.71
[7]; [11]
  G/R ratio after 7 day subculture: 6.23
  G/R ratio after 15 day subculture: 6.89
  Spirochetes after 7 day subculture (microscope counting): 9 × 10^5
  Spirochetes after 15 day subculture (microscope counting): ~5×10^6
[7]; 7 days treatment, then subculture, listed as Dox
  Spirochetes after 15 day subculture (microscope counting): 4 × 10^6
[7]; Borreliella burgdorferi, 168 h, seven-day-old culture, 7 days, read-out: Residual viable cells (epifluorescence microscope counting)
  viability at 10 µg/mL: 67%
[8]; 50 μM, seven day old stationary phase culture, 7 days
  Residual viable cells (SYBR Green I/PI assay): 68%
[8]; Borreliella burgdorferi, 168 h, read-out: Residual viable cells (%) 20 μM (SYBR Green I/PI assay), 20 μM, seven day old stationary phase, 7 days
  viability at 20 µM: 76%
[8]; Borreliella burgdorferi, 168 h, read-out: Residual viable cells (SYBR Green I/PI assay), 50 μM, seven day old stationary phase culture, 7 days
  viability at 50 µM: 75%
[9]; [12]
  Spirochetes number After 10 day subculture: 1 × 10^6
  Spirochetes number After 20 day subculture: about 5×10^6
[9]; 10 μg/mL, 7 days treatment, then subculture, listed as Dox
  Spirochetes number After 20 day subculture: 5 × 10^6
[9]; Borreliella burgdorferi, 168 h, read-out: Residual viable cells
  viability at 10 µg/mL: 44%
